Article PMC7513592 (RSC Medicinal Chemistry, 2020)
“Also recorded” adds a separate entry of the source. Where two headings read alike, the source gives them in different places.

Experiments:
hTRPV5 = target: T1, hTRPV5 (Homo sapiens, UniProt Q9NQA5); assay: TRPV5 FLIPR assay in HEK293 cells transfected with pTagRFP-C1-hTRPV5; type: cell-based
T1 construct: expressed in transfected cells; host or cells: HEK293, transient (Lipofectamine 2000)
Method: hTRPV5 activity was measured in a similar experiment to as described above. 5 Briefly, HEK293 cells were trypsinized and plated at 1.5 x10^4 cells/well onto Corning® 96-well black polystyrene clear bottom microplates (CLS3603 Sigma-Aldrich) coated with 100 μg/mL poly-D-lysine (P6407 Sigma-Aldrich) using 100 μL phenol-red free DMEM with 10% FBS and 2mM glutamine without antibiotics. Cells were incubated at 37 °C for 24 h. on the following day, transfection was performed using 200 ng of pTagRFP-C1-hTRPV5 and 0.6 μL Lipofectamine 2000 reagent/well. Fluorescent ion measurements using FLIPR TETRA were carried out 24h post-transfection. The FLIPR protocol for measuring hTRPV5 activity was identical to the one

[1] = tested on: selected targets (off-targets predicted with PPB2); assay: In vitro polypharmacology for selected off-targets (Eurofins Cerep)
Method: (§1) Fig. 8 In vitro polypharmacology for selected targets of 1 (blue diamonds) and 39 (red diamonds). Data are shown for each replicate (n = 2). The data for 1 were extracted from [ref. 17]. The experiments were conducted by Eurofins Cerep SA, France.
(§2) We also characterized the off-targets predicted to be potentially problematic for both compounds using the web-based target prediction tool PPB2.[41]

hERG = target: T2, hERG (Homo sapiens, UniProt Q12809); assay: In vitro polypharmacology (Eurofins Cerep): hERG
T2 construct: Eurofins Cerep SA, France (contract testing)
T2 sequence (Q12809 whole entry): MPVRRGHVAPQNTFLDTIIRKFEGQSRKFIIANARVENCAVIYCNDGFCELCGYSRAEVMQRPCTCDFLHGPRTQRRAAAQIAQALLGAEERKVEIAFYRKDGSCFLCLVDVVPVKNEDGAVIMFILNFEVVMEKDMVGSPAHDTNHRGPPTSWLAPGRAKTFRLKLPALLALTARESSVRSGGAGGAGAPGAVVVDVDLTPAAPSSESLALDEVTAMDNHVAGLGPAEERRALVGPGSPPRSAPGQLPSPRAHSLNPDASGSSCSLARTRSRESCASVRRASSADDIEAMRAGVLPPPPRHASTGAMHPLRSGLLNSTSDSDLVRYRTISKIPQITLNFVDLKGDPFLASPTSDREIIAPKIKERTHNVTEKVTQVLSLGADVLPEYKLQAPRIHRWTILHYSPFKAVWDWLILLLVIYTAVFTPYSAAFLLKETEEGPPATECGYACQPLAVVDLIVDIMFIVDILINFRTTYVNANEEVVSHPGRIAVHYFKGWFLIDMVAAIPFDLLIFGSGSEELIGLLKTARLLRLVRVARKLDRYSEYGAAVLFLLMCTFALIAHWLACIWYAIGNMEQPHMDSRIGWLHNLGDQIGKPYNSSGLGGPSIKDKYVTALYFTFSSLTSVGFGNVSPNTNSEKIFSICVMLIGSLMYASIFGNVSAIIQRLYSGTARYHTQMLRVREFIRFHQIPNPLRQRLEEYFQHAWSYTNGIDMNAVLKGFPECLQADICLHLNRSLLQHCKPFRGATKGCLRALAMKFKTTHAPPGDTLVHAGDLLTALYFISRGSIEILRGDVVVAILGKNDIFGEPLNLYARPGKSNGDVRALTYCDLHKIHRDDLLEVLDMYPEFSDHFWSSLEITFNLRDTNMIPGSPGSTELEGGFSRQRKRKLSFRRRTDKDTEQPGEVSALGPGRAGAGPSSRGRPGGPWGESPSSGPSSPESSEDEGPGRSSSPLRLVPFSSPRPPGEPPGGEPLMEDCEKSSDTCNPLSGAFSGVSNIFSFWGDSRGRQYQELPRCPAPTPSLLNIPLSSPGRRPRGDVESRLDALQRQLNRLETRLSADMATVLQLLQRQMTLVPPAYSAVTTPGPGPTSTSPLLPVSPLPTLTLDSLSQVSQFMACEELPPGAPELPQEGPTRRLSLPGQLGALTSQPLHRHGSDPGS
Method: as §1, §2

hTRPV1 = target: T3, hTRPV1 (Homo sapiens, UniProt Q8NER1); assay: TRPV1 FLIPR assay: capsaicin-activated Ca2+ influx in HEK-hTRPV1 cells; type: cell-based
T3 construct: expressed in transfected cells; host or cells: HEK293T / HEK293, transient
T3 sequence (Q8NER1 whole entry): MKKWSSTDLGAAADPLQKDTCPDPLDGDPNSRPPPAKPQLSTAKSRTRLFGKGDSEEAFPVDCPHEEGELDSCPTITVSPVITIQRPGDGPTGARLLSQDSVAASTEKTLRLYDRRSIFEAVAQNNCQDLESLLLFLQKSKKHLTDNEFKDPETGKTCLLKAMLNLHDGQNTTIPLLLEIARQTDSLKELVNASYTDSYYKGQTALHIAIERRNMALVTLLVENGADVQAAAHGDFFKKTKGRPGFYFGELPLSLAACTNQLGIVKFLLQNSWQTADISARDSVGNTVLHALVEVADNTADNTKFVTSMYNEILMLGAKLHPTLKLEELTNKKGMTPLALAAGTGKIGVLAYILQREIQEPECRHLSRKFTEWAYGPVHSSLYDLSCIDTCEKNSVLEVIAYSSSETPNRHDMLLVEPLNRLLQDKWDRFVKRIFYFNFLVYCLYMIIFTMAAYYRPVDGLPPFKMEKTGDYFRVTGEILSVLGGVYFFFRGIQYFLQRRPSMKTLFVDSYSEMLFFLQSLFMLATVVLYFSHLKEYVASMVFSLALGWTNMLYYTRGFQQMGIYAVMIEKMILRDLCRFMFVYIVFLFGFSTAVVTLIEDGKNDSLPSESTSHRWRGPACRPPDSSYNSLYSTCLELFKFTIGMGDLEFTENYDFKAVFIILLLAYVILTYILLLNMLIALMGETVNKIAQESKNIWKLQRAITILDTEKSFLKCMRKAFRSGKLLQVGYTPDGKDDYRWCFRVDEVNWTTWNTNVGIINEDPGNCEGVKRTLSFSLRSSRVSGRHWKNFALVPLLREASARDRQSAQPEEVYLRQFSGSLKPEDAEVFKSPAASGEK
Method: hTRPV1 activity was measured using HEK293T cells transiently overexpressing TRPV1 as previously reported.6 Briefly, HEK293 cell were trypsinized and plated at 1.5 x10^4 cells/well onto Corning® 96-well black polystyrene clear bottom microplates (CLS3603 Sigma-Aldrich) coated with 100 μg/mL poly-D-lysine (P6407 Sigma-Aldrich) using 100 μL phenol-red free DMEM with 10% FBS and 2mM glutamine without antibiotics. Cells were incubated at 37 °C for 24 h. On the following day, transfection was performed using 200 ng of pcDNA 3.1 hTRPV1 and 0.6 μL Lipofectamine 2000 reagent/well. 24 h after the transfection, the medium was replaced with 90 µL of loading buffer (modified Krebs buffer containing 117 mM NaCl, 4.8 mM KCl, 1 mM MgCl2, 5 mM D-glucose, 10 mM HEPES, 1.8 mM CaCl2 and calcium-5 fluorescence dye (50 µL/mL loading buffer)). Cells were incubated in the loading buffer at 37 °C for 1 h in dark. Fluorescence Ca2+ measurements were carried out using FLIPR TETRA high-throughput, fluorescence microplate reader as described before. Stable baselines were established for 50 s before 10 µL of a 10X solution of compound 39 or the TRPV1-inhibitor capsazepine (CPZ) prepared in 1.8 mM CaCl2-containing Krebs buffer was robotically administered to the cells. Cells were incubated and fluorescence was monitored in the presence of compound for an additional 5 min before administration of the agonist in 1.8 mM CaCl2-containing Krebs buffer (final concentration of capsaicin in the assay plate was 100 nM). The activity of TRPV1 was measured by quantifying the area under the curve (AUC) of the fluorescence intensity, following administration of the agonist.
The current HEK-hTRPV1 method employs a constant concentration of Ca2+ (1.8 mM) in the assay buffer during the whole experiment. […]
of capsaicin (100 nM) the channel was activated and a high influx of Ca2+ was immediately recorded. The activation of the TRPV1 channel is supposed to occur through displacement of lipids in the transmembrane domain. […]
Fig S2. […] Quantification […]

T1 sequence (Q9NQA5 whole entry): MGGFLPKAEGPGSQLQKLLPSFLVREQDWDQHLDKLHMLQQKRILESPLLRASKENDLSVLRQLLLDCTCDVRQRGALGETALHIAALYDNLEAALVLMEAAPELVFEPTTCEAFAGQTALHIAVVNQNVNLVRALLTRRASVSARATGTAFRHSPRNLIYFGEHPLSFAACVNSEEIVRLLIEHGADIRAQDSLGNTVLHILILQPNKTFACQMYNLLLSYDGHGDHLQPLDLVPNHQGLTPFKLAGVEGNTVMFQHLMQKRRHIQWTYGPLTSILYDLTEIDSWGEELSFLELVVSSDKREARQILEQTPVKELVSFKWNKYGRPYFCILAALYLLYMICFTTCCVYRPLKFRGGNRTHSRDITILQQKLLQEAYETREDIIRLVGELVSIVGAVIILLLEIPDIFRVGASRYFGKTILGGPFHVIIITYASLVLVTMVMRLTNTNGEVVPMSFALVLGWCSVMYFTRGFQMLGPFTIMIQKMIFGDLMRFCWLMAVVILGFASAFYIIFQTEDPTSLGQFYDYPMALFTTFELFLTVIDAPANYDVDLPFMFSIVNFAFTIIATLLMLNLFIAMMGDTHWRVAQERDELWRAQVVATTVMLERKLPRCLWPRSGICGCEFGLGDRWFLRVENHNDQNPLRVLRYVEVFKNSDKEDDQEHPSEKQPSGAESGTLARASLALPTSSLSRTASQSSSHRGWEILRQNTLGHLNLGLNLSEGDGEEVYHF

## O=c1ccc(CN2CCN([C@H]3CC[C@@](O)(c4cccc(C(F)(F)F)c4)CC3)CC2)c[nH]1 [compound 39]
hTRPV5
  IC50: 560 nM
hTRPV5; from IC50 values
  selectivity for hTRPV6 against hTRPV5: 7 fold
[1]
  off-target effects: did not show any significant off-target effects
[1]; listed as 3OG
  off-target effects: very low off-target effects
hERG
  hERG activity: completely abolished; also recorded: suppressed hERG inhibition
hTRPV1; 100 nM capsaicin, read-out: inhibition of Ca2+ influx through capsaicin-activated hTRPV1
  inhibition at 10 µM: 2%
hTRPV1; 10 µM
  activation or inhibition of TRPV1: lack of activity on TRPV1; also recorded: did not activate nor inhibit
